One compound from article PMC6220203, “Cellular signaling and gene expression profiles evoked by a bivalent macrocyclic peptide that serves as an artificial MET receptor agonist” (Scientific Reports, 2018) can be followed below.

The experiment concerns MET receptor / AKT in EHMES-1 cells. Description: Western blot of MET and AKT phosphorylation with or without PHA665752. The format is cell-based, human. The settings on record: PHA665752 100 nM, stimulated by 1 nM HGF or 120 nM aMD5-PEG11, 10 min. As for the experimental part:
EHMES-1 cells were seeded at 9 × 10^5 cells per well in 6-well plates and cultured overnight. To treat the cells with the MET receptor tyrosine kinase inhibitor, EHMES-1 cells were seeded at 3 × 10^5 cells per well in 24-well plates and cultured with or without 100 nM PHA665752 for 12 h. After serum starvation for 4 h, cells were stimulated with HGF or dimeric macrocycle peptide. After washing with ice-cold PBS, cells were lysed in 200 μl 1 × SDS-PAGE Laemmli sample buffer and treated with ultrasonification (Vibra-cell). Cell lysates were analyzed by SDS-PAGE with a 7.5% polyacrylamide gel and electroblotted onto a PVDF membrane. The membrane was treated with primary antibodies (1:1000), followed by HRP-conjugated secondary antibodies (Dako) (1:2000). Chemiluminescence was visualized and quantitated using ImmunoStar LD (Wako). Original blots are provided by supplementary info.

Take `Cc1[nH]c(/C=C2\C(=O)Nc3ccc(S(=O)(=O)Cc4c(Cl)cccc4Cl)cc32)c(C)c1C(=O)N1CCC[C@@H]1CN1CCCC1` [PHA665752]: the “inhibition of MET receptor and AKT activation” value is “almost completely blocked the activation of the MET receptor and AKT to basal levels”.
